Data reported in paper PMC9227077, “Prediction Models for Brain Distribution of Drugs Based on Biomimetic Chromatographic Data” (Molecules, 2022).
Read-outs that look alike come from different tables or passages of the source.

Tests used:
[1] = cited from earlier work
human serum albumin = tested on: human serum albumin; design: method as in ref 45 (a number printed in a supplementary file, which may have a reference list of its own: not looked up in the article's list); conditions: cited from earlier work
[2] = Unbound fraction in brain (fu,brain), brain homogenate method; conditions: Kb from literature fu,brain
Text: However, Kp,uu,brain can be derived from Kp,brain by combining the unbound fraction of the drug in the plasma (fu,p) and in the brain (fu,brain) or the unbound brain volume of distribution, Vu,brain [7]. […] The relevant equations are included in Section 3. Evidently, fu,p is obtained by standard methods for plasma protein binding.
Experimentally determined Kp,brain values for 42 compounds were obtained from the literature and were converted to logBB. They preferably referred to rat studies in order to achieve homogeneity in the data. Experimental fu,brain values were available from the literature for 39 compounds in the dataset. When more than one value was available, the average was calculated. Most values were determined on rats.
The decimal logarithm of Kb, logKb, was used for the development of the models.

[3] = most values in rats, average if more than one value; cited from earlier work
[4] = design: method as in ref 23, 24, 27, 29, 45 (a number printed in a supplementary file, which may have a reference list of its own: not looked up in the article's list); conditions: 100% aqueous mobile phase, previously obtained in authors' laboratory, cited from earlier work
[5] = rat brain tissue; cited from earlier work
α1 acid glycoprotein = tested on: α1 acid glycoprotein; design: method as in ref 23, 24, 27, 29, 45 (a number printed in a supplementary file, which may have a reference list of its own: not looked up in the article's list); conditions: pH=7.4, 100% aqueous mobile phase; previously obtained in authors' laboratory; cited from earlier work
[6] = cited from earlier work; remark: listed apart in the source
[7] = brain slice method; cited from earlier work
[8] = octanol-water partition coefficient, experimental
[9] = pH=5.0, octanol-water, experimental
[10] = pH=7.4, octanol-water, experimental
[11] = pH=7.4, isocratic, 10% acetonitrile, available for 37 compounds, remaining calculated by equation
[12] = literature Kp,brain converted to logBB
[13] = total brain/total plasma, preferably rat studies

## CCCC(C)(COC(N)=O)COC(N)=O [Meprobamate]
[1]; [8]
  logP: 0.70
[1]; [9]
  logD: 1.07
[1]; [10]
  logD: 0.70
Human serum albumin; [11]
  logk10,HSA: -0.36
[2]
  logKb exper.: 0.245
[3]
  fu,brain: 0.638
[4]; pH=5.0, PBS
  logkw IAM: 0.54
[4]; pH=7.4, PBS
  logkw IAM: 0.72

## CC1COc2c(N3CCN(C)CC3)c(F)cc3c(=O)c(C(=O)O)cn1c23 (stereo not shown) [Ofloxacin]
[1]; [9]
  logD: -1.31
Human serum albumin
  logk10,HSA: -0.65
[5]
  Kp,uu,brain: 0.12
[4]; pH=5.0, PBS
  logkw IAM: 1.35
[4]; pH=7.4, PBS
  logkw IAM: 1.30

## OCCN1CCN(CCCN2c3ccccc3Sc3ccc(Cl)cc32)CC1 [Perphenazine]
[1]; [8]
  logP: 4.20
[1]; [9]
  logD: 1.61
[1]; [10]
  logD: 3.65
Human serum albumin; [11]
  logk10,HSA: 1.24
α1 acid glycoprotein
  logkwAGP: 3.19
[3]
  fu,brain: 0.004
[4]; pH=7.4, PBS
  logkw IAM: 3.67

## Cc1nc2n(c(=O)c1CCN1CCC(c3noc4cc(F)ccc34)CC1)CCCC2 [Risperidone]
Human serum albumin; [11]
  logk10,HSA: 0.13
[5]
  Kp,uu,brain: 0.08
[4]; pH=7.4, PBS
  logkw IAM: 2.49

## C=C[C@H]1C[N@@]2CC[C@H]1C[C@@H]2[C@@H](O)c1ccnc2ccc(OC)cc12 [Quinidine]
Human serum albumin
  logk10,HSA: 0.29
[5]
  Kp,uu,brain: 0.03
α1 acid glycoprotein
  logkwAGP: 1.71
[4]; pH=7.4, PBS
  logkw IAM: 2.34

## O=C1NC(=O)C(c2ccccc2)(c2ccccc2)N1 [Phenytoin]
[1]; [8]
  logP: 2.24
[1]; [9]
  logD: 1.95
[1]; [10]
  logD: 2.17
Human serum albumin; [11]
  logk10,HSA: 0.44
[5]
  Kp,uu,brain: 0.45
α1 acid glycoprotein
  logkwAGP: 1.60
[3]
  fu,brain: 0.121
[6]; [12]
  logBB exper.: -0.04
[6]; [13]
  Kp,brain: 0.91
[4]; pH=5.0, PBS
  logkw IAM: 1.94
[4]; pH=7.4, PBS
  logkw IAM: 1.75

## Cn1c(=O)c2c(ncn2C)n(C)c1=O [Caffeine]
[5]
  Kp,uu,brain: 0.77
[4]; pH=7.4, PBS
  logkw IAM: 0.26

## CC(=O)Nc1ccc(O)cc1 [Acetaminophen]
Human serum albumin; [11]
  logk10,HSA: -0.56
[5]
  Kp,uu,brain: 0.18
α1 acid glycoprotein
  logkwAGP: 0.10
[2]
  logKb exper.: 0.692
[6]; [12]
  logBB exper.: -0.31
[6]; [13]
  Kp,brain: 0.49
[4]; pH=5.0, PBS
  logkw IAM: -0.06
[4]; pH=7.4, PBS
  logkw IAM: 0.18

## CN(C)C(=N)N=C(N)N [Metformin]
[7]
  Vu,brain: 10.00 mL/g brain
[2]
  logKb exper.: 1.270
[4]; pH=7.4, PBS
  logkw IAM: -0.37

## COC(=O)[C@H]1[C@@H](OC(=O)c2ccccc2)C[C@@H]2CC[C@H]1N2C [Cocaine]
[1]; [8]
  logP: 3.01
[1]; [9]
  logD: -0.96
[1]; [10]
  logD: 1.07
Human serum albumin; [11]
  logk10,HSA: 0.33
[5]
  Kp,uu,brain: 0.37
[6]; rat, in vivo
  Kp,brain: 3.98
  logBB exper.: 0.6
[4]; pH=7.4, PBS
  logkw IAM: 1.90

## CSc1ccc2c(c1)N(CCC1CCCCN1C)c1ccccc1S2 (stereo not shown) [Thioridazine]
[1]; [8]
  logP: 5.90
[1]; [9]
  logD: 3.06
[1]; [10]
  logD: 3.34
Human serum albumin; [11]
  logk10,HSA: 1.59
[7]
  Vu,brain: 3333.00 mL/g brain
[3]
  fu,brain: 0.001
[6]; [12]
  logBB exper.: 0.24
[6]; [13]
  Kp,brain: 1.74

## O=C(O)c1ccccc1O [Salicylic acid]
[7]
  Vu,brain: 1.00 mL/g brain
[2]
  logKb exper.: 0.230
[3]
  fu,brain: 0.630
[4]; pH=5.0, PBS
  logkw IAM: 0.46
[4]; pH=7.4, PBS
  logkw IAM: -0.08

## Cc1cc(=O)n(-c2ccccc2)n1C [Antipyrine]
Human serum albumin
  logk10,HSA: -1.04
[5]
  Kp,uu,brain: 0.71
α1 acid glycoprotein
  logkwAGP: 0.88
[3]
  fu,brain: 0.862
[6]; [13]
  Kp,brain: 0.80
[4]; pH=7.4, PBS
  logkw IAM: 0.45

## COc1ccc2c(c1)c(CC(=O)O)c(C)n2C(=O)c1ccc(Cl)cc1 [Indomethacin]
[1]; [9]
  logD: 2.95
Human serum albumin
  logk10,HSA: 1.76
[7]
  Vu,brain: 14.00 mL/g brain
α1 acid glycoprotein
  logkwAGP: 1.59
[3]
  fu,brain: 0.042
[6]; [12]
  logBB exper.: -1.26
[6]; [13]
  Kp,brain: 0.05
[4]; pH=5.0, PBS
  logkw IAM: 2.93
[4]; pH=7.4, PBS
  logkw IAM: 2.41

## CN(C)CCC=C1c2ccccc2CCc2ccccc21 [Amitriptyline]
[1]; [9]
  logD: 1.13
[1]; [10]
  logD: 2.50
Human serum albumin; [11]
  logk10,HSA: 0.89
[7]
  Vu,brain: 310.00 mL/g brain
α1 acid glycoprotein
  logkwAGP: 2.40
[3]
  fu,brain: 0.010
[6]; [12]
  logBB exper.: 0.98
[6]; [13]
  Kp,brain: 9.55
[4]; pH=5.0, PBS
  logkw IAM: 2.06
[4]; pH=7.4, PBS
  logkw IAM: 2.99

## C=CCOc1ccccc1OCC(O)CNC(C)C (stereo not shown) [Oxprenolol]
[1]; [9]
  logD: -0.61
[1]; [10]
  logD: 0.32
Human serum albumin; [11]
  logk10,HSA: -0.25
[7]
  Vu,brain: 11.80 mL/g brain
[3]
  fu,brain: 0.280
[6]; [12]
  logBB exper.: 0.025
[6]; [13]
  Kp,brain: 1.06
[4]; pH=5.0, PBS
  logkw IAM: 0.87
[4]; pH=7.4, PBS
  logkw IAM: 1.47

## CC(C)NCC(O)COc1cccc2ccccc12 (stereo not shown) [Propranolol]
Human serum albumin; [11]
  logk10,HSA: 0.48
[7]
  Vu,brain: 112.00 mL/g brain
α1 acid glycoprotein
  logkwAGP: 2.20
[3]
  fu,brain: 0.025
[6]; [12]
  logBB exper.: 0.64
[6]; [13]
  Kp,brain: 4.37
[4]; pH=5.0, PBS
  logkw IAM: 1.63
[4]; pH=7.4, PBS
  logkw IAM: 2.33

## CC(C)Cc1ccc(C(C)C(=O)O)cc1 (stereo not shown) [Ibuprofen]
[1]; [9]
  logD: 2.15
[5]
  Kp,uu,brain: 0.56
[4]; pH=5.0, PBS
  logkw IAM: 1.55
[4]; pH=7.4, PBS
  logkw IAM: 0.87

## CNC(=C[N+](=O)[O-])NCCSCc1ccc(CN(C)C)o1 [Ranitidine]
[1]
  logP: 1.28
[1]; [9]
  logD: -3.37
[1]; [10]
  logD: -0.53
Human serum albumin; [11]
  logk10,HSA: -0.41
[2]
  logKb exper.: 1.317
[6]; [12]
  logBB exper.: -1.23
[6]; [13]
  Kp,brain: 0.06
[4]; pH=7.4, PBS
  logkw IAM: 0.61

## Cc1ncc2n1-c1ccc(Cl)cc1C(c1ccccc1F)=NC2 [Midazolam]
[1]; [9]
  logD: 1.95
[1]; [10]
  logD: 3.27
Human serum albumin; [11]
  logk10,HSA: 0.99
[7]
  Vu,brain: 29.00 mL/g brain
[5]
  Kp,uu,brain: 2.19
[3]
  fu,brain: 0.026
[6]; [12]
  logBB exper.: 0.36
[6]; [13]
  Kp,brain: 2.29
[4]; pH=5.0, PBS
  logkw IAM: 1.93
[4]; pH=7.4, PBS
  logkw IAM: 2.77
